The values that follow come from ChEMBL document CHEMBL1201862, “PubChem BioAssay data set” (2004).

Some test systems named below: KM12; CCRF-CEM; MOLT-4; A498; K562; EKVX; Malme-3M; OVCAR-5; NCI-H460; CAKI-1; SK-MEL-2; HL-60; UO-31; SK-MEL-5; SF-295; 786-0; SK-OV-3; SNB-19.
Holding throughout (test): NCI-60 cell line screen, 48 h

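1) Cells in 96-well plates. 2) Compound, 48 h, 5 concentrations. 3) Linear interpolation between surrounding doses. 4) Unreached endpoint = highest concentration. GI50: concentration for 50% inhibition of growth.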 Calls of active or inactive are those of the source. Rule as the data show it: active = GI50 up to about 1.1 µM and inactive = higher. Where only a bound is given, the exact number is not on record here.

Regarding `O=C1C(=Cc2ccc(F)cc2)C(=O)c2ccccc21`, the GI50 in the assay with KM12 is > 100 µM (inactive); in the assay with CCRF-CEM, 41.2 µM (inactive); with MOLT-4, 42 µM (inactive); in the assay with A498 it was > 100 µM (inactive); with K562, > 100 µM (inactive); in the assay on EKVX, > 100 µM (inactive). The GI50 in the assay with Malme-3M is > 100 µM (inactive); in the assay with OVCAR-5, > 100 µM (inactive); in the assay with NCI-H460, > 100 µM (inactive); with CAKI-1, > 100 µM (inactive); with SK-MEL-2, > 100 µM (inactive); in the assay with HL-60 it was 30.5 µM (inactive). The GI50 in the assay on UO-31, in the assay with SK-MEL-5, in the assay on SF-295, in the assay with 786-0, with SK-OV-3 and in the assay with SNB-19 was > 100 µM (inactive) in each case.

Regarding `CN(C)/N=N/c1cccc(C(N)=O)c1`, the GI50 in the assay with KM12, in the assay on CCRF-CEM, in the assay on MOLT-4, with A498, in the assay on K562 and in the assay on EKVX was > 100 µM (inactive) each time. The GI50 in the assay on Malme-3M, with NCI-H460, in the assay on CAKI-1, in the assay on SK-MEL-2, in the assay with HL-60 and in the assay on UO-31 was > 100 µM (inactive) each time. For the same molecule, the GI50 in the assay on SK-MEL-5, with SF-295, in the assay with 786-0, in the assay with SK-OV-3 and in the assay on SNB-19 was > 100 µM (inactive) throughout.

`NC(=O)c1nc(-c2ccc(Cl)c(Cl)c2)nc2ccccc12`: the GI50 in the assay on KM12 is > 100 µM (inactive); in the assay on CCRF-CEM, > 100 µM (inactive); in the assay on MOLT-4, > 100 µM (inactive); with A498, 16.1 µM (inactive); in the assay with K562 it was > 31.6 µM (inactive); in the assay on EKVX, > 41.6 µM (inactive). The GI50 in the assay with Malme-3M was 4.92 µM (inactive); in the assay on OVCAR-5, > 100 µM (inactive); in the assay on NCI-H460, > 55.7 µM (inactive); with CAKI-1 it was > 94.4 µM (inactive); in the assay with SK-MEL-2 it was 9.42 µM (inactive); in the assay on HL-60, > 100 µM (inactive). Also, the GI50 in the assay on SK-MEL-5 is > 49.3 µM (inactive); in the assay with 786-0, 3.69 µM (inactive); in the assay on SK-OV-3, 12.1 µM (inactive); in the assay on SNB-19 it was 17.8 µM (inactive).

On to `COc1ccc(C(=O)C(CC2C(=O)NC(=O)NC2=O)c2ccc(OC)cc2)cc1` (stereo not drawn), for which the GI50 with KM12, in the assay with CCRF-CEM, with MOLT-4, with A498, in the assay with K562 and with EKVX was > 100 µM (inactive) in each case. The GI50 in the assay with Malme-3M, with OVCAR-5, with NCI-H460, in the assay on CAKI-1, in the assay with SK-MEL-2 and in the assay on HL-60 was > 100 µM (inactive) each time. Also, the GI50 in the assay with UO-31, in the assay on SK-MEL-5, with SF-295, in the assay on 786-0, in the assay on SK-OV-3 and with SNB-19 was > 100 µM (inactive) in each case.

Take `CC(C)O/C=C1\C(=O)C2(SCCS2)[C@H]2CCCC[C@@H]12`: the GI50 was 35.6 µM (inactive) in the assay on KM12; 25.5 µM (inactive) with CCRF-CEM; 16.2 µM (inactive) in the assay on MOLT-4; 17.7 µM (inactive) in the assay on A498; 39.8 µM (inactive) in the assay with K562; 32.7 µM (inactive) in the assay on Malme-3M. Besides, the GI50 with NCI-H460 is 33.7 µM (inactive); in the assay on CAKI-1, 29.2 µM (inactive); in the assay with SK-MEL-2 it was 34.8 µM (inactive); in the assay on HL-60, 24.2 µM (inactive); in the assay with UO-31, 41.3 µM (inactive); in the assay with SK-MEL-5, 25.2 µM (inactive). Further, the GI50 was 48 µM (inactive) with 786-0, 59.7 µM (inactive) in the assay with SK-OV-3 and 39.5 µM (inactive) with SNB-19.

Regarding `C=CCc1ccc(O)c(-c2cc(C3Oc4c(-c5cc(CC=C)ccc5O)cc(O)cc4[C@@H]3CO)ccc2O)c1` (stereo partly drawn), the GI50 in the assay on KM12 was 27.4 µM (inactive); in the assay with CCRF-CEM, 20.7 µM (inactive); in the assay on A498, 14.8 µM (inactive); in the assay with K562, 15.6 µM (inactive); in the assay on EKVX, 64.4 µM (inactive); with Malme-3M it was 50.4 µM (inactive). Moreover, the GI50 in the assay with OVCAR-5 was 56.1 µM (inactive); in the assay on NCI-H460, 66.2 µM (inactive); in the assay with CAKI-1, 47.3 µM (inactive); in the assay with SK-MEL-2, 18.6 µM (inactive); in the assay with HL-60 it was 18.5 µM (inactive); with UO-31, 40.2 µM (inactive). The GI50 in the assay on SK-MEL-5 was 16 µM (inactive); in the assay on SF-295, 48.3 µM (inactive); in the assay on 786-0, 33.5 µM (inactive); in the assay on SK-OV-3, 42.7 µM (inactive); in the assay with SNB-19, 28.5 µM (inactive).

Consider `O=[N+]([O-])c1cc(/C=N/NS(=O)(=O)c2ccc(F)cc2)c(O)c([N+](=O)[O-])c1`, for which the GI50 with KM12 is 21 µM (inactive); in the assay on CCRF-CEM, 37.6 µM (inactive); with MOLT-4, 21.9 µM (inactive); in the assay with A498, 29.9 µM (inactive); with K562, 41.2 µM (inactive); in the assay on EKVX, > 100 µM (inactive). The GI50 was 63.1 µM (inactive) with Malme-3M; > 100 µM (inactive) with OVCAR-5; 28.8 µM (inactive) in the assay on NCI-H460; 76.2 µM (inactive) with CAKI-1; 45.2 µM (inactive) in the assay on SK-MEL-2; 38.5 µM (inactive) with HL-60. The GI50 in the assay on UO-31 was > 100 µM (inactive); in the assay with SK-MEL-5, 25.7 µM (inactive); in the assay with SF-295, 52.8 µM (inactive); with 786-0, 41.3 µM (inactive); in the assay on SK-OV-3 it was 30.1 µM (inactive); with SNB-19 it was 33.7 µM (inactive).

For the molecule `O=C(O)CSc1nnc(-c2ccccc2O)[nH]1`, the GI50 in the assay on CCRF-CEM, in the assay with MOLT-4, with A498, in the assay on K562, in the assay with EKVX and in the assay with Malme-3M was > 100 µM (inactive) each time. Moreover, the GI50 in the assay on OVCAR-5, with NCI-H460, in the assay on CAKI-1, in the assay with SK-MEL-2, with HL-60 and in the assay on UO-31 was > 100 µM (inactive) throughout. In addition, the GI50 in the assay on SK-MEL-5, with SF-295, with 786-0 and in the assay with SNB-19 was > 100 µM (inactive) throughout.

For `CC1=CC(=C(c2ccc(N)c(C)c2)c2ccc(N)c(C)c2)C=CC1=N`, the GI50 in the assay on KM12 is 3.24 µM (inactive); with CCRF-CEM it was 2.86 µM (inactive); with MOLT-4 it was 3.65 µM (inactive); with A498 it was 9.16 µM (inactive); in the assay on K562, 2.92 µM (inactive); in the assay on EKVX, 4.89 µM (inactive). The GI50 with Malme-3M is 2.91 µM (inactive); in the assay on OVCAR-5 it was 5.42 µM (inactive); with NCI-H460 it was 3.61 µM (inactive); in the assay on CAKI-1, 15.2 µM (inactive); with SK-MEL-2, 2.73 µM (inactive); in the assay with HL-60, 3.72 µM (inactive). The GI50 in the assay with UO-31 is 28.3 µM (inactive); in the assay with SK-MEL-5, 2.07 µM (inactive); in the assay on SF-295 it was 0.873 µM (active); in the assay with 786-0, 3.11 µM (inactive); with SK-OV-3, 4.66 µM (inactive); in the assay on SNB-19, 0.689 µM (active).

As to `COC(=O)C(=O)C(C(=O)C(=O)Nc1ccccc1[N+](=O)[O-])c1nc2ccc([N+](=O)[O-])cc2nc1O` (stereo not drawn), the GI50 in the assay with KM12, with CCRF-CEM, in the assay with MOLT-4, in the assay with A498, in the assay with K562 and with EKVX was > 100 µM (inactive) each time. Moreover, the GI50 with Malme-3M, in the assay with OVCAR-5, with NCI-H460, in the assay on CAKI-1, with SK-MEL-2 and in the assay on HL-60 was > 100 µM (inactive) in each case. The GI50 was > 100 µM (inactive) with UO-31; 46.2 µM (inactive) with SK-MEL-5; > 100 µM (inactive) in the assay on SF-295; > 100 µM (inactive) in the assay on 786-0; > 100 µM (inactive) in the assay on SK-OV-3; > 100 µM (inactive) in the assay on SNB-19.

In the case of `CSC1C=C(C(C)C)CCC1(C)SC` (stereo not drawn), the GI50 was 14.3 µM (inactive) with KM12; 21 µM (inactive) with CCRF-CEM; 16.5 µM (inactive) with MOLT-4; 25.6 µM (inactive) in the assay on A498; 16.7 µM (inactive) in the assay on K562; 24.5 µM (inactive) with EKVX. The GI50 in the assay with Malme-3M is 13.3 µM (inactive); in the assay with OVCAR-5 it was 16.2 µM (inactive); with NCI-H460 it was 17.2 µM (inactive); in the assay with CAKI-1, 18.3 µM (inactive); with SK-MEL-2 it was 17.7 µM (inactive); in the assay on HL-60 it was 2.3 µM (inactive). The GI50 is 14.3 µM (inactive) with UO-31; 17.5 µM (inactive) with SK-MEL-5; 17.8 µM (inactive) in the assay on 786-0; 21.4 µM (inactive) with SK-OV-3; 21.2 µM (inactive) in the assay with SNB-19.
